Source: patent publication US11559504B2, “Ceramide nanoliposomes, compositions and methods of using for immunotherapy” (THE PENN STATE RESEARCH FOUNDATION, priority 2017, dated 2023)

How the values were obtained:
GM-BMMs = assay: M1 cytokine mRNA in GM-BMMs with LipC6, NAC or both, RT-PCR; assay type: cell-based, C57BL/6 mice; details: 50 μM NAC, 24 hours
Method: GM-BMMs were prepared in vitro by stimulating bone marrow derived monocytes from wild type C57BL/6 mice with 50 ng/mL GMCSF for 6 days. GM-BMMs were incubated for 24 hours with 25 μM vehicle, 25 μM LipC6, 50 μM NAC or LipC6 plus NAC. Total RNA was extracted and subjected to RT-PCR to quantitate M1 cytokines including iNOS (B), IL-12 (C), IFN-γ (D) and TNF-α (E). n=3, *=p<0.05 and **=p<0.001 using Student's t-test.
Total RNA extraction and real-time PCR. Total RNAs were extracted using Trizol reagent (Invitrogen, Carlsbad, Calif.) according to the manufacturer's instructions. 2 μg of total RNAs were used for cDNA synthesis with High Capacity cDNA Reverse Transcription Kits (Applied Biosystems, CA). Each PCR was performed in a 20 μl reaction mixture containing SYBR Green I (Roche, Basel, Switzerland). Real-time PCR was performed with CFX96 Real-Time PCR Detection System (Bio-Rad, CA). Reactions were run in triplicate in three independent experiments. Expression data were normalized to the geometric mean of housekeeping gene 18S rRNA to control the variability in expression levels and were analyzed using the 2^ΔΔCT method.
To further study if ROS signaling is required for LipC6-mediated modulation of macrophages, we compared the function of LipC6 and the ROS specific inhibitor N-acetyl-L-cysteine (NAC) in modulating M1 cytokine production in GMCSF-induced macrophages.

G-BMMs and M-BMMs = assay: ROS in bone marrow-derived macrophages in vitro, ROS-Glo H2O2 luminescent assay; assay type: cell-based, C57BL/6 mice; details: ceramides of carbon-chain lengths 6 to 22, overnight incubation
Method: Size-matched TBMs were randomly assigned to one of three groups: vehicle, LipC6, or no injection. Two weeks after injection, splenic leukocytes and TILs were prepared from the spleen and the perfused tumors. The cells were incubated for 45 mins at 37° C., then washed three times with media, with the remaining adherent cells being >90% CD11b positive (macrophages). Intracellular ROS were measured with Glo™ H2O2 assay. Briefly, H2O2 substrate was added to each well followed by addition of ROS-Glo™ detection solution. After incubation for 20 minutes at RT, relative luminescence was measured to assess ROS level in TAMs (A) and splenic macrophages (B). Similarly, bone marrow-derived macrophages (BMMs) were prepared in vitro by stimulating bone marrow cells from wild type C57BL/6 mice with GMCSF (G-BMMs) and MCSF (M-BMMs) for 6 days.
G-BMMs (A) and M-BMMs (B) were prepared in vitro by stimulating bone marrow cells from wild type C57BL/6 mice with GMCSF and MCSF for 6 days. After incubation with the ceramides of different carbon-chain lengths varying from 6 to 22 overnight, the relative ROS level in G-BMMs (C) and M-BMMs (D) was measured with a luminescence assay in accordance with the manufacturer's instruction. n=3; error bars represent±SD. * p<0.05.
Mice. […] Small tumors can be detected by MRI two months after hepatocyte inoculation. […]

Question: `CC(=O)N[C@@H](CS)C(=O)O` [NAC, N-acetyl-L-cysteine] was tested. Which “M1 cytokine production profile compared with LipC6” value (GM-BMMs) did it give?
Answer: The value was “similar”.

Question: `CCCCCCCCCCCCC/C=C/[C@@H](O)[C@H](CO)NC(=O)CCCCC` [C6-ceramide, N-hexanoyl-D-erythro-sphinogosine] was tested. Which “suppressive effect on ROS production in BMMs” value (G-BMMs and M-BMMs) did it give?
Answer: The value was “suppressive effect”.

Question: `CCCCCCCCCCCCC/C=C/[C@@H](O)[C@H](CO)NC(=O)CCCCCCC` [C8-ceramide] was tested. Which “suppressive effect on ROS production in BMMs” value (G-BMMs and M-BMMs) did it give?
Answer: The value was “suppressive effect”.
